The values that follow come from ChEMBL document CHEMBL1124952, “Growth inhibition and induction of cellular differentiation of human myeloid leukemia cells in culture by carbamoyl congeners of ribavirin” (1990).

Common to all, as to format: functional
The subject of one test is K562. Kind of test: Evaluated for cell growth inhibition and induction of cellular differentiation of human myeloid leukemia cell line (K562). The settings on record: read-out: ID50 (the source's name).
The nature of test [1]: Evaluated for cell growth inhibition and induction of cellular differentiation of human B-lymphoblast cell line (WI-L2). The settings on record: WIL2, read-out: ID50 (the source's name).
The test system of another test is HL-60. The test is described as follows: Evaluated for cell growth inhibition and induction of cellular differentiation of human myeloid leukemia cell line (HL-60). Particulars: read-out: ID50 (the source's name).
In the next test the test system is L1210. The test is described as follows: Evaluated for cell growth inhibition and induction of cellular differentiation of Murine leukemia cell line (L-1210). Particulars: Mus musculus, read-out: ID50 (the source's name).

With `NC(=O)c1nn([C@@H]2O[C@H](CO)[C@@H](O)[C@H]2O)nc1C(N)=O`, the IC50 is 26 µM in the test on K562, 41 µM in test [1], 32 µM in the test on HL-60 and more than 100 µM with L1210.

Take `N=C(N)c1nn(C2OC(CO)[C@H](O)C2O)c(N)c1C(=N)N` (stereo not given in full): the IC50 in the test with K562 is more than 200 µM; in test [1], 179 µM; in the test on HL-60, 130 µM; in the test on L1210, 200 µM.

Take `N=C(NO)c1nn(C2O[C@H](CO)[C@@H](O)[C@H]2O)nc1/C(N)=N/O` (stereo not given in full): the IC50 (with K562; in test [1]; with HL-60; with L1210) was more than 200 µM in each case.

For the compound `NC(=O)c1cn(C2O[C@H](CO)[C@@H](O)[C@H]2O)nc1C(N)=O` (stereo not given in full), the IC50 is 160 µM with K562, 100 µM in test [1], 58 µM with HL-60 and more than 100 µM in the test with L1210.

On to `N=C(NO)c1nn(C2O[C@H](CO)[C@@H](O)[C@H]2O)c(N)c1/C(N)=N/O` (stereo not given in full), for which the IC50 (in the test on K562; in test [1]; in the test with HL-60; in the test with L1210) was more than 200 µM in each case.

Consider `N=C(S)c1nn(C2O[C@H](CO)[C@@H](O)[C@H]2O)nc1C(N)=S` (stereo not given in full), for which the IC50 (with K562; in test [1]; in the test on HL-60; in the test on L1210) was more than 200 µM each time.

Regarding `NC(=O)c1nn(C2O[C@H](CO)[C@@H](O)[C@H]2O)c(N)c1C(N)=O` (stereo not given in full), the IC50 came to 51 µM in the test with K562, 46 µM in test [1], 39 µM with HL-60 and 44 µM in the test with L1210.

Take `N=C(S)c1nn(C2O[C@H](CO)[C@@H](O)[C@H]2O)c(N)c1C(N)=S` (stereo not given in full): the IC50 was more than 200 µM in the test with K562, 154 µM in test [1], 200 µM in the test with HL-60 and more than 200 µM in the test with L1210.

Take `NC(=O)c1cn(C2O[C@H](CO)[C@@H](O)[C@H]2O)cc1C(N)=O` (stereo not given in full): the IC50 was 32 µM in the test with K562, 33 µM in test [1], 36 µM in the test on HL-60 and 48 µM in the test on L1210.

With `NC(=O)c1ncn([C@@H]2O[C@H](CO)[C@@H](O)[C@H]2O)n1` [RIBAVIRIN], the IC50 in the test with K562 came out at 50 µM; in test [1], 42 µM; with HL-60, 67 µM; in the test on L1210, 36 µM.
